Data reported in patent publication US8986946B2, “Real-time method for the detection of viable micro-organisms” (Nederlandse Organisatie Voor …, priority 2007, dated 2015).

Experiments:
[1] = test system: Saccharomyces cerevisiae ATCC 9763; assay: Real-time viability assay, uptake of the phototautomeric compound followed by fluorescence; assay type: cell-based; conditions: for uptake by yeast: 50 μM compound in 100 mM potassium phosphate buffer pH 2 (FIG. 6)
Procedure: (§1) A solution of 100 μl containing 50 μM compound in 100 mM potassium phosphate buffer pH 7 is used for recording the excitation and emission wavelengths in a Tecan microplate fluorometer. The ratio of emission intensity at pH 7.5 and 1 as well as the ratio of emission intensity at pH 7 and 2 (indicated by the asterisk) was recorded with 100 μl solution containing 50 μM compound in 100 mM potassium phosphate buffer pH 2 or 7 in a Tecan microplate fluorometer at optimal excitation wavelength. Uptake of compounds by viable and nonviable (heat-inactivated for 5 minutes at 95° C.) Staphylococcus aureus ATCC 6538 and Sachromyces serervisiae ATCC 9763 cells is real-time monitored in a Tecan microplate fluorometer at optimal excitation and emission wavelengths. A solution of 50 μM compound in 100 mM potassium phosphate buffer pH2 was added to 100 μl cell suspensions at t=20 seconds, uptake of compound was monitored for 180 seconds.
(§2) A solution of 100 μl containing 50 μM o-hydroxycinnamic acid, 100 mM potassium phosphate buffer pH 2, was added at t=20 seconds, as indicated by the arrow.
(§3) Real-time viability assay for various micro-organisms. Bacterial and yeast strains were cultured overnight at 37° C. at 100 RPM in 10-ml of a rich trypticase soy broth (TSB) medium. A culture volume of 5 ml is centrifuged at 2000 RPM for 10 min and resuspended in 2 ml of physiological salt solution (peptone, 0.9% NaCl) followed by an OD600 measurement. The yeast strains include Candida albicans ATCC 10231, Saccharomyces cereuisiae ATCC9763 and the bacterial strains include A Staphylococcus aureus strain ATCC 6538, Enterobacter cloacae LMG 2783, Escherichia coli ATCC 10536, Bacillus subtilis DSM618 and Pseudomonas aeruginosa ATCC27853. The assay is carried out as specified above for Staphylococcus aureus. […] Accordingly, quantification of the number of viable cells of the yeast and other fungal strains should occur on the basis of increase of fluorescence over the measured period of time.

[2] = test system: yeast (and other fungal) strains: Candida albicans ATCC 10231, Saccharomyces cereuisiae ATCC9763; assay: Real-time viability assay for various micro-organisms (yeast strains); assay type: cell-based, Saccharomyces cerevisiae; conditions: 100 mM potassium phosphate buffer pH 2
Procedure: as §3, with “Typical real-time viability assay. Staphylococcus aureus strain ATCC 6538 is cultured overnight at 100 RPM at 37° C. in 10-ml of a rich trypticase soy broth (TSB) medium. A culture volume of 5 ml is centrifuged at 2000 RPM for 10 min and resuspended in 2 ml of physiological salt solution (peptone, 0.9% NaCl) followed by an OD600 measurement. A culture suspension of 1 ml is heat-inactivated by incubation at 95° C. for 5 min. (nonviable control cell suspension). A volume of 100 μl of a viable and a nonviable cell suspension is pipetted in separate wells of a polystyrene 96-well, flat-bottom microtiter plate. Subsequently, fluorescence emission kinetics (excitation wavelength 290 nm; emission wavelength 402 nm) are monitored for 500 seconds with a time interval of 200 ms, number of reads 5. […] Hereafter, the fluorescence signal decays on a minute time-scale as a result of the loss of membrane integrity or cell viability. […] From 60.2 seconds the signal will remain constant as the membrane is permeable in nonviable cells allowing quenching of fluorescence by acidification of the intracellular environment. Real-time” for “Real-time”

[3] = test system: Staphylococcus aureus ATCC 6538; assay: Real-time viability assay, uptake of the phototautomeric compound followed by fluorescence; assay type: cell-based; conditions: for uptake by bacteria: 50 μM compound in 100 mM potassium phosphate buffer pH 2 (FIG. 6); for rise in fluorescence after addition of the compound, viable vs nonviable cells: 50 μM compound, 100 mM potassium phosphate buffer pH 2, added at t=20 seconds
Procedure: as §1, §2
Typical real-time viability assay. Staphylococcus aureus strain ATCC 6538 is cultured overnight at 100 RPM at 37° C. in 10-ml of a rich trypticase soy broth (TSB) medium. A culture volume of 5 ml is centrifuged at 2000 RPM for 10 min and resuspended in 2 ml of physiological salt solution (peptone, 0.9% NaCl) followed by an OD600 measurement. A culture suspension of 1 ml is heat-inactivated by incubation at 95° C. for 5 min. (nonviable control cell suspension). A volume of 100 μl of a viable and a nonviable cell suspension is pipetted in separate wells of a polystyrene 96-well, flat-bottom microtiter plate. Subsequently, fluorescence emission kinetics (excitation wavelength 290 nm; emission wavelength 402 nm) are monitored for 500 seconds with a time interval of 200 ms, number of reads 5. […] Hereafter, the fluorescence signal decays on a minute time-scale as a result of the loss of membrane integrity or cell viability. […] From 60.2 seconds the signal will remain constant as the membrane is permeable in nonviable cells allowing quenching of fluorescence by acidification of the intracellular environment.

[4] = test system: Saccharomyces cerevisiae ATCC 9763; assay: as above; assay type: cell-based; conditions: 2 mM salicylic acid, pH 2

SMILES: O=C(O)c1ccc2ccccc2c1O [1H-2NA, 1-hydroxy-2-naphtoic acid]
- uptake by yeast [1]: taken up by both bacteria and yeast
- accumulation of the compound by yeast (and other fungal) strains [2]: relatively slowly
- decay of fluorescent signal in yeast (and other fungal) strains [2]: no decay of fluorescent signal
- uptake by bacteria [3]: taken up by both bacteria and yeast

SMILES: O=C(O)c1c(O)ccc2ccccc12 [2H-1NA, 2-hydroxy-1-naphtoic acid]
- accumulation of the compound by yeast (and other fungal) strains [2]: relatively slowly
- decay of fluorescent signal in yeast (and other fungal) strains [2]: no decay of fluorescent signal

SMILES: Nc1cc2ccccc2cc1C(=O)O [3-amino-2-napthoic acid]
- uptake by yeast [1]: taken up by both bacteria and yeast
- uptake by bacteria [3]: taken up by both bacteria and yeast

SMILES: Nc1ccc(C(=O)O)c(O)c1 [4-amino salicylic acid]
- uptake by yeast [1]: hardly taken up by yeast

SMILES: O=C(O)c1ccc(O)cc1O [4-hydroxy salicylic acid]
- uptake by yeast [1]: hardly taken up by yeast

SMILES: Nc1ccc(O)c(C(=O)O)c1 [5-amino salicylic acid]
- uptake by yeast [1]: hardly taken up by yeast

SMILES: Cn1c(=O)n(C)c2cc(C(=O)O)c(N)cc21 [6-amino-1,3-dimethyl-2-oxo-2,3-dihydro-1H-benzoimidazole-5-carboxylic acid]
- rise in fluorescence after addition of the compound, viable vs nonviable cells ([1]; 50 μM compound, 100 mM potassium phosphate buffer pH 2, added at t=20 seconds): only observed for viable Saccharomyces cereuisiae cells

SMILES: O=C(O)c1cc2oc3ccccc3c2cc1O [S350729]
- uptake by yeast [1]: taken up by both bacteria and yeast
- uptake by bacteria [3]: taken up by both bacteria and yeast

SMILES: O=C(O)c1cc(O)ccc1O [gentisic acid, 2,5-dihydroxybenzoic acid]
- rise in fluorescence after addition of the compound, viable vs nonviable cells [3]: only observed for viable Staphylococcus aureus cells

SMILES: O=C(O)C=Cc1ccccc1O [o-hydroxycinnamic acid]
- uptake by yeast [1]: hardly taken up by yeast
- rise in fluorescence after addition of the compound, viable vs nonviable cells [3]: only observed for viable Staphylococcus aureus cells

SMILES: O=C(O)c1ccccc1O [salicylic acid]
- uptake by yeast [1]: taken up by both bacteria and yeast
- accumulation of the compound by yeast (and other fungal) strains [2]: relatively slowly
- decay of fluorescent signal in yeast (and other fungal) strains [2]: no decay of fluorescent signal
- permeability of the cell membrane to the compound, compared with bacteria [4]: less-permeable
- uptake by bacteria [3]: taken up by both bacteria and yeast
- time constant of the acidification process ([3]; 2 mM salicylic acid, 100 mM potassium phosphate buffer pH 2): 0.005 s⁻¹
- time scale of the rapid rise in fluorescence (transfer from the extracellular to the intracellular medium) ([3]; 100 μl of 2 mM salicylic acid, 100 mM potassium phosphate buffer pH 2, injected at 60 seconds): < 200 ms
- uptake of salicylic acid by the bacteria (time) ([3]; stationary culture, 2 mM salicylic acid, 100 mM potassium phosphate buffer pH 2): within seconds
